From patent US20120094995A1, “2-AZA-BICYCLO[2.2.1]HEPTANE COMPOUNDS AND USES THEREOF” (ASTRAZENECA AB, priority 2009, published 2012)

Target: T1, human GlyT1b (Homo sapiens, UniProt P48067)
T1 construct: expressed in transfected cells
T1 sequence (P48067 1-652 isoform P48067-3): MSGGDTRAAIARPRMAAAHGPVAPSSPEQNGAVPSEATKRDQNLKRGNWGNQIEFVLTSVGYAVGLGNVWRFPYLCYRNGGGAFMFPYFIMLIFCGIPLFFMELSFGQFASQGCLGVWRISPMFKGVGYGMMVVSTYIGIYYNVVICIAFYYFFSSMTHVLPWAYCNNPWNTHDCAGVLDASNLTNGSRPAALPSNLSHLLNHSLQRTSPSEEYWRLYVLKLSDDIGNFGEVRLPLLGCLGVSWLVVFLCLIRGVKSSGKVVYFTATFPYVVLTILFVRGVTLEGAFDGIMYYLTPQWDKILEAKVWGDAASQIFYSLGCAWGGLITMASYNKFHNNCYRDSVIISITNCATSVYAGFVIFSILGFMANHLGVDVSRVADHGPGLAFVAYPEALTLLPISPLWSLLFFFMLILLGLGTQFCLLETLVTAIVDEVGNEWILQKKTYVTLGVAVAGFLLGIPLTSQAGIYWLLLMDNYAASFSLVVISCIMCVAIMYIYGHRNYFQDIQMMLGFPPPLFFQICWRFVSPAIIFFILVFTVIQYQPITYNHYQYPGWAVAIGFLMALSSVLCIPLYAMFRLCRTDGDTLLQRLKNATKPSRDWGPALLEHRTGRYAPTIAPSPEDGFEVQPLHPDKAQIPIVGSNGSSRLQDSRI
Assay: [3H] Glycine Uptake Assay (SPA) in recombinant hGlyT1b-CHO cells
Assay type: cell-based
Method: A. [3H] Glycine Uptake Assay
Preparation of recombinant human GlyT1b-CHO cells (hGlyT1b-CHO). The human GlyT1b CDS (GC002087, NM_006934) was cloned downstream of a CMV promoter in a bicistronic expression vector containing a hygromycin B resistance gene. CHO-K1 cells (ATCC) were transfected with the recombinant vector containing GlyT1b using Lipofectamine 2000 (Invitrogen) and cultured in Ham's/F12 media supplemented with 10% fetal bovine serum, 2 mM L-glutamine at 37° C., 5% CO2, 90% humidity. Twenty-four hours after transfection, cells were diluted and switched to media containing 0.5 mg/ml hygromycin B. Antibiotic resistant cells were obtained after 21 days of culture in the presence of hygromycin B. Clonal stable cell lines were isolated by FACS single cell deposition into 96-well plates.
Cells used were Recombinant hGlyT1b/CHO. These cells were cultured in cell culture medium (Ham's/F12 (Modified) (Mediatech, 10-080-CM), containing 10% FBS, 2 mM L-glutamine (Invitrogen 25030-149) and 0.5 mg/mL hygromycin B (Invitrogen, 10687-010)) in 175 cm^2 flasks until near confluence before use in the assay.
Cell medium in a cell culture flask containing near confluent cells was removed and 5 mL of cell stripper was added to submerge all cells on the surface of the culture flask. Cell stripper was removed immediately and the flask incubated in a 37° C. incubator for ˜5 min. Cells were shaken loose and suspended in 5 mL of PBS. After splitting cells to initiate a new flask(s), the cells remaining were collected by centrifugation, counted, and resuspended in assay buffer to a density of ˜2 million/mL. The cell suspension was kept at room temperature before use. The assays buffer was 10 mM HEPES, pH 7.4, containing 150 mM NaCl, 5 mM KCl, 1.5 mM CaCl2, 1.5 mM MgCl2, 0.45 mg/mL L-alanine (added fresh), and 1.8 mg/mL D-glucose (added fresh).
WGA PTV beads were suspended in assay buffer (2 mg/ml) containing 60 nM [^3H]Glycine (PerkinElmer (NET-004, [2-^3H]Glycine, 53.3 Ci/mmol, 1 mCi/mL)) and 20 μM unlabeled glycine and the suspension was kept at room temperature before assay.
To the wells of an OptiPlate, 2 μl DMSO containing a test compound was spotted. This was followed by addition of 98 μl of cell suspension (˜1 million/ml final). After incubating cells with compound for ˜15 min, 100 μl of the SPA (200 μg/well final) and isotope mixture (30 nM isotope with 10 μM cold glycine, final) was added to initiate the glycine uptake. At 2 h, the plate was read on a TopCount to quantify SPA counts.

SMILES | IC50 (Table 2, unit from table title) [nM] | IC50 (Table 1) [nM]
Cc1ccc(C(NC(=O)c2c(C)cccc2C)C23CCC(CC2)N3C)o1 (single isomer, unassigned) [Example 91] | 344 | –
Cc1cccc(C)c1C(=O)NC(c1cccc(F)c1)C12CCC(CC1)N2 (stereo not shown) [Example 35] | 18 | –
CSc1ncccc1C(=O)NC(c1ccccc1)C12CCC(CC1)N2C (stereo not shown) [Example 10, N-((7-methyl-7-azabicyclo[2.2.1]heptan-1-yl)(phenyl)methyl)-2-(methylthio)nicotinamide] | – | 145
CSc1ncccc1C(=O)NC(c1ccccc1)C12CCC(CC1)N2C (single isomer, unassigned) [Example 2, (R*)—N-((7-methyl-7-azabicyclo[2.2.1]heptan-1-y)(phenyl)methyl)-2-(methylthio)nicotinamide] | – | 168
Cc1cccc(C)c1C(=O)NC(c1cccc(F)c1)C12CCC(CC1)N2C (single isomer, unassigned) [Example 45] | 175 | –
Cc1cccc(C)c1C(=O)NC(c1ccc(Br)cc1)C12CCC(CC1)N2 (stereo not shown) [Example 89] | 68 | –
CN1C2CCC1(C(NC(=O)c1cccc(Cl)c1Cl)c1ccccc1)CC2 (stereo not shown) [Example 12, 2,3-dichloro-N-((7-methyl-7-azabicyclo[2.2.1]heptan-1-yl)(phenyl)methyl)benzamide] | – | 33.6
COCCN1C2CCC1([C@H](NC(=O)c1ccc(F)cc1C)c1ccccc1)CC2 [Example 96] | 167 | –
Cc1cccc(C(NC(=O)c2c(C)cccc2C)C23CCC(CC2)N3C)c1 (stereo not shown) [Example 84] | 26 | –
CC(=O)NCCN1C2CCC1([C@H](NC(=O)c1c(C)cccc1C)c1ccccc1)CC2 [Example 42] | 6 | –
Cc1c(C(=O)NC(c2ccccc2)C23CCC(CC2)N3C)cccc1C(F)(F)F (stereo not shown) [Example 16, 2-methyl-N-((7-methyl-7-azabicyclo[2.2.1]heptan-1-yl)(phenyl)methyl)-3-(trifluoromethyl)benzamide] | – | 18.6
Cc1cccc(C)c1C(=O)NC(c1cccc(Br)c1)C12CCC(CC1)N2C (stereo not shown) [Example 8, N-((3-bromophenyl)(7-methyl-7-azabicyclo[2.2.1]heptan-1-yl)methyl)-2,6-dimethylbenzamide] | – | 3
CCCOC(=O)c1ccc(C(NC(=O)c2c(C)cccc2C)C23CCC(CC2)N3C)cc1 (stereo not shown) [Example 98] | 39 | –
Cc1cccc(C)c1C(=O)N[C@H](c1ccccc1)C12CCC(CC1)N2CCN1CCOCC1 [Example 71] | < 2 | –
CC(=O)Nc1cccc(C(NC(=O)c2c(C)cccc2C)C23CCC(CC2)N3C)c1 (stereo not shown) [Example 102] | 127 | –
CSc1ncccc1C(=O)NC(c1ccccc1)C12CCC(CC1)N2C1CCC1 (stereo not shown) [Example 44] | 243 | –
Cc1cccc(C)c1C(=O)NC(c1cccnc1)C12CCC(CC1)N2 (stereo not shown) [Example 60] | 30 | –
Cc1cc(C(NC(=O)c2c(C)cccc2C)C23CCC(CC2)N3C)ccn1 (single isomer, unassigned) [Example 85] | 23 | –
CN1C2CCC1(C(NC(=O)c1cccc(Cl)c1Cl)c1ccccc1)CC2 (single isomer, unassigned) [Example 13, (R*)-2,3-dichloro-N-((7-methyl-7-azabicyclo[2.2.1]heptan-1-yl)(phenyl)methyl)benzamide] | – | 72
Cc1cccc(C)c1C(=O)NC(c1cccc(F)c1)C12CCC(CC1)N2 (single isomer, unassigned) [Example 75] | 7 | –
CCCOc1ccc(C(NC(=O)c2c(C)cccc2C)C23CCC(CC2)N3C)cc1 (stereo not shown) [Example 100] | 223 | –
CCc1ccccc1C(=O)N[C@H](c1ccccc1)C12CCC(CC1)N2CCOC [Example 95] | 68 | –
CN1C2CCC1(C(NC(=O)c1ccnc(Cl)c1Cl)c1ccccc1)CC2 (single isomer, unassigned) [Example 15, (R*)-2,3-dichloro-N-((7-methyl-7-azabicyclo[2.2.1]heptan-1-yl)(phenyl)methyl)isonicotinamide] | – | 210
CSc1ncccc1C(=O)N[C@H](c1ccccc1)C12CCC(CC1)N2C1CC1 [Example 57] | 45 | –
COCCN1C2CCC1([C@H](NC(=O)c1ccccc1C)c1ccccc1)CC2 [Example 92] | 202 | –

SMILES | IC50 (Table 2, unit from table title) [nM] | IC50 (Table 1) [nM]
Cc1cccc(C)c1C(=O)NC(c1ccccc1)C12CCC(CC1)N2CC(C)C (stereo not shown) [Example 22] | 13 | –
Cc1cccc(C)c1C(=O)N[C@H](c1ccccc1)C12CCC(CC1)N2CCC(F)(F)F [Example 58] | 3 | –
Cc1cccc(C)c1C(=O)N[C@H](c1ccccc1)C12CCC(CC1)N2CC(C)C [Example 26] | 21 | –
CCN1C2CCC1(C(NC(=O)c1c(Cl)cncc1Cl)c1ccccc1)CC2 (stereo not shown) [Example 50] | 237 | –
CCCCc1cccc(C(NC(=O)c2c(C)cccc2C)C23CCC(CC2)N3C)c1 (stereo not shown) [Example 103] | 119 | –
Cc1cccc(C)c1C(=O)N[C@H](c1ccccc1)C12CCC(CC1)N2CC1CCC1 [Example 29] | 9 | –
CSc1ncccc1C(=O)NC(c1ccccc1)C12CCC(CC1)N2C(C)C (stereo not shown) [Example 48] | 23 | –
Cc1cccc(C)c1C(=O)N[C@H](c1ccccc1)C12CCC(CC1)N2Cc1cnn(C)c1 [Example 61] | 12 | –
COCCCN1C2CCC1(C(NC(=O)c1cccnc1SC)c1ccccc1)CC2 (stereo not shown) [Example 55] | 310 | –
Cc1cccc(C)c1C(=O)NC(c1cccc(C(=O)N(C)C)c1)C12CCC(CC1)N2C (stereo not shown) [Example 88] | 57 | –
Cc1cccc(C)c1C(=O)NC(c1cccnc1)C12CCC(CC1)N2C (stereo not shown) [Example 65] | 31 | –
CN1C2CCC1(C(NC(=O)c1cccc(C(F)(F)F)c1Cl)c1ccccc1)CC2 (stereo not shown) [Example 17, 2-chloro-N-((7-methyl-7-azabicyclo[2.2.1]heptan-1-yl)(phenyl)methyl)-3-(trifluoromethyl)benzamide] | – | 17.9
Cc1cc(C(NC(=O)c2c(C)cccc2C)C23CCC(CC2)N3)ccn1 (stereo not shown) [Example 83] | 136 | –
Cc1cccc(C)c1C(=O)N[C@H](c1ccccc1)C12CCC(CC1)N2CC1CCCO1 (stereo partly shown) [Example 56] | 4 | –
Cc1cccc(C)c1C(=O)N[C@H](c1ccccc1)C12CCC(CC1)N2CCO [Example 34] | < 1.28 | –
CCN1C2CCC1(C(NC(=O)c1cccnc1SC)c1ccccc1)CC2 (single isomer, unassigned) [Example 73] | 46 | –
Cc1cc(F)ccc1C(=O)NC(c1ccccc1)C12CCC(CC1)N2C (single isomer, unassigned) [Example 62] | 48 | –
Cc1cccc(C)c1C(=O)N[C@H](c1ccc(F)cc1)C12CCC(CC1)N2 [Example 30] | 93 | –
Cc1cccc(C)c1C(=O)NC(c1ccc(O)cc1)C12CCC(CC1)N2C (stereo not shown) [Example 99] | 6 | –
Cc1cccc(Cl)c1C(=O)NC(c1ccccc1)C12CCC(CC1)N2C (stereo not shown) [Example 67] | 6 | –
CSc1ncccc1C(=O)NC(c1ccncc1)C12CCC(CC1)N2C1CCC1 (single isomer, unassigned) [Example 101] | 160 | –
CN1C2CCC1(C(NC(=O)c1cccc(C(F)(F)F)c1Cl)c1ccccc1)CC2 (stereo not shown) [Example 20] | 26 | –
COc1cccc(OC)c1C(=O)NC(c1ccccc1)C12CCC(CC1)N2C (stereo not shown) [Example 11, 2,6-dimethoxy-N-((7-methyl-7-azabicyclo[2.2.1]heptan-1-yl)(phenyl)methyl)benzamide] | – | 349
CSc1ncccc1C(=O)NC(c1ccccc1)C12CCC(CC1)N2C(C)C (single isomer, unassigned) [Example 53] | 24 | –
